Test results published in patent US8173808B2, “Substituted naphthalenyl-pyrimidine compounds” (ArQule, Inc., priority 2009, dated 2012).
Counter-ions that a name gives are not always drawn.

Experiments:
[1] = tested on: DLD-1; assay: MTS assay, DLD-1; assay type: cell-based; settings: Homo sapiens, 72 hours, 1 Percent FBS
[2] = tested on: MDA-MB-231; assay: MTS assay, MDA-MB-231; assay type: cell-based; settings: Homo sapiens, 72 hours, 1 Percent FBS

| SMILES | melting point | inhibition at 10 µM [1] | inhibition at 10 µM [2] |
| --- | --- | --- | --- |
| COc1ccc2cc(-c3ccnc(NCCc4ccc(OC)c(OC)c4)n3)cc(N3CCNCC3)c2c1 (as salt: HCl) [Compound 110, N-(3,4-dimethoxyphenethyl)-4-(6-methoxy-4-(piperazin-1-yl)naphthalen-2-yl)pyrimidin-2-amine] | 138 to 140 °C |  |  |
| CNc1nccc(-c2cc(NCCCNCCCOC)c3cc(OC)ccc3c2)n1 (as salt: HCl) [Compound 190, N-{7-methoxy-3-[2-(methylamino)pyrimidin-4-yl]-1-naphthyl}-N′-(3-methoxypropyl)propane-1,3-diamine] | 130 to 132 °C |  |  |
| CCN(CC)CCCN1CCN(c2cc(-c3ccnc(NCc4cccc(OC)c4)n3)cc3ccc(OC)cc23)CC1 (as salt: hydrochloride) [Compound 197, 4-(4-(4-(3-(diethylamino)propyl)piperazin-1-yl)-6-methoxynaphthalen-2-yl)-N-(3-methoxybenzyl)pyrimidin-2-amine] | 156 to 160 °C |  |  |
| COc1cccc(CNc2nccc(-c3cc(N4CCN(CCCN5CCCC5)CC4)c4cc(OC)ccc4c3)n2)c1 (as salt: hydrochloride) [Compound 198, 4-(6-methoxy-4-(4-(3-(pyrrolidin-1-yl)propyl)piperazin-1-yl)naphthalen-2-yl)-N-(3-methoxybenzyl)pyrimidin-2-amine] | 160 to 167 °C |  |  |
| COc1ccc(CNc2nccc(-c3cc(NC(=O)OC(C)(C)C)c4cc(OC)ccc4c3)n2)cc1 [Compound 104, tert-butyl (7-methoxy-3-{2-[(4-methoxybenzyl)amino]pyrimidin-4-yl}-1-naphthyl)carbamate] |  | 48% | 30% |
| COc1ccc2cc(-c3ccnc(NCC(C)(C)CN(C)C)n3)cc(NC(=O)OC(C)(C)C)c2c1 [Compound 105, tert-butyl [3-(2-{[3-(dimethylamino)-2,2-dimethylpropyl]amino}pyrimidin-4-yl)-7-methoxy-1-naphthyl]carbamate] |  | 84% | 89% |
| COc1ccc2cc(-c3ccnc(NC4CCN(C)CC4)n3)cc(N3CCNCC3)c2c1 [Compound 116, 4-(6-methoxy-4-piperazin-1-yl-2-naphthyl)-N-(1-methylpiperidin-4-yl)pyrimidin-2-amine] |  | 97% | 97% |
| COc1ccc2cc(-c3ccnc(NC4CCN(Cc5ccccc5)CC4)n3)cc(N3CCNCC3)c2c1 [Compound 117, N-(1-benzylpiperidin-4-yl)-4-(6-methoxy-4-piperazin-1-yl-2-naphthyl)pyrimidin-2-amine] |  | 97% | 97% |
| COc1ccc2cc(-c3ccnc(NC4CC(C)(C)N(C)C(C)(C)C4)n3)cc(N3CCNCC3)c2c1 [Compound 118, 4-(6-methoxy-4-piperazin-1-yl-2-naphthyl)-N-(l,2,2,6,6-pentamethylpiperidin-4-yl)pyrimidin-2-amine] |  | 96% | 96% |
| COCCNc1nccc(-c2cc(N3CCNCC3)c3cc(OC)ccc3c2)n1 [Compound 119, N-(2-methoxyethyl)-4-(6-methoxy-4-piperazin-1-yl-2-naphthyl)pyrimidin-2-amine] |  | 94% | 93% |
| COc1ccc2cc(-c3ccnc(NCc4ccccn4)n3)cc(N3CCNCC3)c2c1 [Compound 120, 4-(6-methoxy-4-piperazin-1-yl-2-naphthyl)-N-(pyridin-2-ylmethyl)pyrimidin-2-amine] |  | 83% | 78% |
| COc1ccc2cc(-c3ccnc(NCc4ccc(OC)c(OC)c4)n3)cc(N3CCNCC3)c2c1 [Compound 121, N-(3,4-dimethoxybenzyl)-4-(6-methoxy-4-piperazin-1-yl-2-naphthyl)pyrimidin-2-amine] |  | 97% | 99% |
| COc1ccc2cc(-c3ccnc(NCCc4cccnc4)n3)cc(N3CCNCC3)c2c1 [Compound 122, 4-(6-methoxy-4-piperazin-1-yl-2-naphthyl)-N-(2-pyridin-3-ylethyl)pyrimidin-2-amine] |  | 94% | 95% |
| COc1ccc2cc(-c3ccnc(NCCc4ccccn4)n3)cc(N3CCNCC3)c2c1 [Compound 123, 4-(6-methoxy-4-piperazin-1-yl-2-naphthyl)-N-(2-pyridin-2-ylethyl)pyrimidin-2-amine] |  | 97% | 98% |
| COc1ccc2cc(-c3ccnc(NCCc4ccccc4OC)n3)cc(N3CCNCC3)c2c1 [Compound 124, N-[2-(2-methoxyphenyl)ethyl]-4-(6-methoxy-4-piperazin-1-yl-2-naphthyl)pyrimidin-2-amine] |  | 97% | 98% |
| COc1ccc2cc(-c3ccnc(NCCN(C)C)n3)cc(N3CCNCC3)c2c1 [Compound 125, N′-[4-(6-methoxy-4-piperazin-1-yl-2-naphthyl)pyrimidin-2-yl]-N,N-dimethylethane-1,2-diamine] |  | 96% | 96% |

| SMILES | melting point | inhibition at 10 µM [1] | inhibition at 10 µM [2] |
| --- | --- | --- | --- |
| COc1ccc2cc(-c3ccnc(NCc4cccc(C(F)(F)F)c4)n3)cc(N3CCNCC3)c2c1 [Compound 127, 4-(6-methoxy-4-piperazin-1-yl-2-naphthyl)-N-[3-(trifluoromethyl)benzyl] pyrimidin-2-amine] |  | 97% | 99% |
| COc1ccc2cc(-c3ccnc(NCc4ccccc4C)n3)cc(N3CCNCC3)c2c1 [Compound 128, 4-(6-methoxy-4-piperazin-1-yl-2-naphthyl)-N-(2-methylbenzyl)pyrimidin-2-amine] |  | 97% | 98% |
| COc1ccc2cc(-c3ccnc(NCCc4cccc(OC)c4OC)n3)cc(N3CCNCC3)c2c1 [Compound 129, N-[2-(2,3-dimethoxyphenyl)ethyl]-4-(6-methoxy-4-piperazin-1-yl-2-naphthyl)pyrimidin-2-amine] |  | 97% | 99% |
| COc1ccc2cc(-c3ccnc(NCc4cccnc4)n3)cc(N3CCNCC3)c2c1 [Compound 130, 4-(6-methoxy-4-piperazin-1-yl-2-naphthyl)-N-(pyridin-3-ylmethyl)pyrimidin-2-amine] |  | 97% | 76% |
| CCN1CCCC(Nc2nccc(-c3cc(N4CCNCC4)c4cc(OC)ccc4c3)n2)C1 (stereo not drawn) [Compound 131, N-(1-ethylpiperidin-3-yl)-4-(6-methoxy-4-piperazin-1-yl-2-naphthyl)pyrimidin-2-amine] |  | 92% | 97% |
| COc1cc(CCNc2nccc(-c3cc(N4CCNCC4)c4cc(OC)ccc4c3)n2)cc(OC)c1 [Compound 132, N-[2-(3,5-dimethoxyphenyl)ethyl]-4-(6-methoxy-4-piperazin-1-yl-2-naphthyl)pyrimidin-2-amine] |  | 97% | 98% |
| COc1ccc2cc(-c3ccnc(NCCN4CCCC4)n3)cc(N3CCNCC3)c2c1 [Compound 133, 4-(6-methoxy-4-piperazin-1-yl-2-naphthyl)-N-(2-pyrrolidin-1-ylethyl)pyrimidin-2-amine] |  | 97% | 98% |
| COc1ccc(CCNc2nccc(-c3cc(N4CCNCC4)c4cc(OC)ccc4c3)n2)cc1 [Compound 134, N-[2-(4-methoxyphenyl)ethyl]-4-(6-methoxy-4-piperazin-1-yl-2-naphthyl)pyrimidin-2-amine] |  | 97% | 98% |
| COc1ccc2cc(-c3ccnc(NCC(C)(C)CN(C)C)n3)cc(N3CCNCC3)c2c1 [Compound 136, N′-[4-(6-methoxy-4-piperazin-1-yl-2-naphthyl)pyrimidin-2-yl]-N,N,2,2-tetramethylpropane-1,3-diamine] |  | 97% | 95% |
| CNc1nccc(-c2cc(NC3CCN(c4ccc5ccccc5n4)CC3)c3cc(OC)ccc3c2)n1 [Compound 154, 4-{6-methoxy-4-[(1-quinolin-2-ylpiperidin-4-yl)amino]-2-naphthyl}-N-methylpyrimidin-2-amine] |  | 82% | 41% |
| CNc1nccc(-c2cc(NC3CCN(c4ncnc5nc[nH]c45)CC3)c3cc(OC)ccc3c2)n1 [Compound 157, 4-(6-methoxy-4-{[1-(9H-purin-6-yl)piperidin-4-yl]amino}-2-naphthyl)-N-methylpyrimidin-2-amine] |  | 46% | 75% |
| CNc1nccc(-c2cc(NC3CCN(c4cc(C(=N)N)cc(Cl)n4)CC3)c3cc(OC)ccc3c2)n1 [Compound 158, 2-chloro-6-[4-({7-methoxy-3-[2-(methylamino)pyrimidin-4-yl]-1-naphthyl}amino)piperidin-1-yl]pyridine-4-carboximidamide] |  | 98% | 98% |
| CNc1nccc(-c2cc(NC3CCN(c4cc(Cl)ncn4)CC3)c3cc(OC)ccc3c2)n1 [Compound 159, 4-(4-{[1-(6-chloropyrimidin-4-yl)piperidin-4-yl]amino}-6-methoxy-2-naphthyl)-N-methylpyrimidin-2-amine] |  | 93% | 42% |
| CNc1nccc(-c2cc(NC3CCN(c4nc(C)cc(C(=O)OC)n4)CC3)c3cc(OC)ccc3c2)n1 [Compound 163, methyl 2-[4-({7-methoxy-3-[2-(methylamino)pyrimidin-4-yl]-1-naphthyl}amino)piperidin-1-yl]-6-methylpyrimidine-4-carboxylate] |  | 97% | 98% |
| CNc1nccc(-c2cc(NC3CCN(c4ncnc5c(C)csc45)CC3)c3cc(OC)ccc3c2)n1 [Compound 164, 4-(6-methoxy-4-{[l-(7-methylthieno[3,2-d]pyrimidin-4-yl)piperidin-4-yl]amino}-2-naphthyl)-N-methylpyrimidin-2-amine] |  | 98% | 90% |
| CNc1nccc(-c2cc(NC3CCN(c4ncccc4C(=O)OC)CC3)c3cc(OC)ccc3c2)n1 [Compound 168, methyl 2-[4-({7-methoxy-3-[2-(methylamino)pyrimidin-4-yl]-1-naphthyl}amino)piperidin-1-yl]nicotinate] |  | 98% | 99% |
